Experimental findings from patent US7531540B2, “Phthalazinone-piperidino-derivatives as PDE4 inhibitors” (Nycomed GmbH, priority 2001, dated 2009) are described below.

As usually defined, the melting point is the temperature of the solid-liquid transition.

SMILES strings stand for the structures. Structures can show the parent of a compound that is named as a salt.

For the first data set, the system named is PDE4. Nature of the data set: Inhibition of PDE4 activity ([3H]cAMP hydrolysis, cytosol from human neutrophils). It is filed as biochemical. As to conditions: 0.5 μM cAMP, Motapizone (1 μM) included to suppress PDE3 activity, 15 min at 37° C. The protocol: Method for Measuring Inhibition of PDE4 Activity
PDE4 activity was determined as described by Thompson et al. (Adv Cycl Nucl Res 10: 69-92, 1979) with some modifications (Bauer and Schwabe, Naunyn-Schmiedeberg's Arch Pharmacol 311: 193-198, 1980). At a final assay volume of 200 μl (96 well microtiter plates) the assay mixture contained 20 mM Tris (pH 7.4), 5 mM MgCl2, 0.5 μM cAMP, [^3H]cAMP (about 30,000 cpm/assay), the test compound and an aliquot of cytosol from human neutrophils which mainly contains PDE4 activity as described by Schudt et al. (Naunyn-Schmiedeberg's Arch Pharmacol 344: 682-690, 1991); the PDE3-specific inhibitor Motapizone (1 μM) was included to suppress PDE3 activity originating from contaminating platelets. Serial dilutions of the compounds were prepared in DMSO and further diluted 1:100 (v/v) in the assays to obtain the desired final concentrations of the inhibitors at a DMSO concentration of 1% (v/v) which by itself only slightly affected PDE4 activity.
After preincubation for 5 min at 37° C., the reaction was started by the addition of substrate (cAMP) and the assays were incubated for further 15 min at 37° C. 50 μl of 0.2 N HCl was added to stop the reaction and the assays were left on ice for about 10 min. Following incubation with 25 μg 5′-nucleotidase (Crotalus atrox snake venom) for 10 min at 37° C., the assays were loaded on QAE Sephadex A-25 (1 ml bed volume). The columns were eluted with 2 ml of 30 mM ammonium formiate (pH 6.0) and the eluate was counted for radioactivity. Results were corrected for blank values (measured in the presence of denatured protein) which were below 5% of total radioactivity. […] The IC50 -values for the compounds according to the invention for the inhibition of the PDE4 activity were determined from the concentration-inhibition curves by nonlinear-regression.
The inhibitory values determined for the compounds according to the invention follow from the following table A, in which the numbers of the compounds correspond to the numbers of the examples.
Take `COc1ccc(C2=NN(C3CCN(C(=O)NC(C)(C)C)CC3)C(=O)[C@H]3CC=CC[C@@H]23)c2c1OC(C)(C)C2` (relative stereo) [compound 9, (cis)-4-[4-(7-Methoxy-2,2-dimethyl-2,3-dihydro-benzofuran-4-yl)-1-oxo-4a,5,8,8a-tetrahydro-1H-phthalazin-2-yl]-piperidine-1-carboxylic acid tert-butylamide]: the “Inhibition of PDE4 acitivity [measured as -logIC50 (mol/l)]” value was found to be 10.65.
For the compound `CCOc1ccc(C2=NN(C3CCN(C(=O)Nc4ccccc4)CC3)C(=O)[C@@H]3CC=CC[C@H]23)cc1OCC` [compound 7, 4-[(4aS,8aR)-4-(3,4-Diethoxyphenyl)-1-oxo-4a,5,8,8a-tetrahydro-1H-phthalazin-2-yl]-piperidine-1-carboxylic acid phenylamide], the “Inhibition of PDE4 acitivity [measured as -logIC50 (mol/l)]” value is 10.28.
`COc1ccc(C2=NN(C3CCN(C(=O)NC(C)(C)C)CC3)C(=O)[C@@H]3CC=CC[C@H]23)cc1OC` [compound 8, 4-[(4aS,8aR)-4-(3,4-Dimethoxyphenyl)-1-oxo-4a,5,8,8a-tetrahydro-1H-phthalazin-2-yl]-piperidine-1-carboxylic acid tert-butylamide]: the “Inhibition of PDE4 acitivity [measured as -logIC50 (mol/l)]” value turned out to be 10.18.
The same measure, in the same setting: for `COc1ccc(C2=NN(C3CCN(S(=O)(=O)c4cccc5c(N(C)C)cccc45)CC3)C(=O)[C@@H]3CC=CC[C@H]23)cc1OC` [compound 10, (4aS,8aR)-4-(3,4-Dimethoxyphenyl)-2-[1-(5-dimethylamino-naphthalene-1-sulfonyl)-piperidin-4-yl]-4a,5,8,8a-tetrahydro-2H-phthalazin-1-one] the value was 9.57; for `COc1ccc(C2=NN(C3CCN(c4ccc([N+](=O)[O-])cc4)CC3)C(=O)[C@@H]3CC=CC[C@H]23)cc1OC` [compound 11, (4aS,8aR)-4-(3,4-Dimethoxyphenyl)-2-[1-(4-nitro-phenyl)-piperidin-4-yl]-4a,5,8,8a-tetrahydro-2H-phthalazin-1-one], 10.34; for `COc1ccc(C2=NN(C3CCN(c4ncccn4)CC3)C(=O)[C@@H]3CC=CC[C@H]23)cc1OC` [compound 17, (4aS,8aR)-4-(3,4-Dimethoxyphenyl)-2-(1-pyrimidin-2-yl-piperidin-4-yl)-4a,5,8,8a-tetrahydro-2H-phthalazin-1-one], 10.51.
Consider `COc1ccc(C2=NN(C3CCN(CC(=O)N4CCOCC4)CC3)C(=O)[C@@H]3CC=CC[C@H]23)cc1OC.Cl` [compound 20, (4aS,8aR)-4-(3,4-Dimethoxyphenyl)-2-[1-(2-morpholin-4-yl-2-oxo-ethyl)-piperidin-4-yl]-4a,5,8,8a-tetrahydro-2H-phthalazin-1-one hydrochloride], for which the “Inhibition of PDE4 acitivity [measured as -logIC50 (mol/l)]” value was 10.40.
For the compound `COc1ccc(C2=NN(C3CCN(CCc4ccccc4)CC3)C(=O)[C@@H]3CC=CC[C@H]23)cc1OC.Cl` [compound 21, (4aS,8aR)-4-(3,4-Dimethoxyphenyl)-2-(1-phenethyl-piperidin-4-yl)-4a,5,8,8a-tetrahydro-2H-phthalazin-1-one hydrochloride], the “Inhibition of PDE4 acitivity [measured as -logIC50 (mol/l)]” value worked out at 9.69.
As to `CCOc1ccc(C2=NN(C3CCN(C(=O)N4CCOCC4)CC3)C(=O)[C@@H]3CC=CC[C@H]23)cc1OCC` [compound 22, (4aS,8aR)-4-(3,4-Diethoxyphenyl)-2-[1-(morpholine-4-carbonyl)-piperidin-4-yl]-4a,5,8,8a-tetrahydro-2H-phthalazin-1-one], the “Inhibition of PDE4 acitivity [measured as -logIC50 (mol/l)]” value is 9.37.
`COc1ccc(C2=NN(C3CCN(Cc4cccnc4)CC3)C(=O)[C@@H]3CC=CC[C@H]23)cc1OC.Cl.Cl` [compound 23, (4aS,8aR)-4-(3,4-Dimethoxyphenyl)-2-(1-pyridin-3-ylmethyl-piperidin-4-yl)-4a,5,8,8a-tetrahydro-2H-phthalazin-1-one dihydrochloride]: the “Inhibition of PDE4 acitivity [measured as -logIC50 (mol/l)]” value was determined as 10.80.
Same read-out and setting: for `CCOc1ccc(C2=NN(C3CCN(C(=O)CN4CCOCC4)CC3)C(=O)[C@@H]3CC=CC[C@H]23)cc1OCC.Cl` [compound 25, (4aS,8aR)-4-(3,4-Diethoxyphenyl)-2-[1-(2-morpholin-4-yl-ethanoyl)-piperidin-4yl]-4a,5,8,8a-tetrahydro-2H-phthalazin-1-one hydrochloride] the value was 10.19.
With `COc1ccc(C2=NN(C3CCN(CC(=O)NC(C)C)CC3)C(=O)C3CC=CCC23)cc1OC` [compound 27, 2-{4-[(4aS,8aR)-4-(3,4-Dimethoxyphenyl)-1-oxo-4a,5,8,8a-tetrahydro-1H-phthalazin-2-yl]-piperidin-1-yl}-2H-isopropyl-acetamide], the “Inhibition of PDE4 acitivity [measured as -logIC50 (mol/l)]” value is 10.37.
On to `COc1ccc(C2=NN(C3CCN(Cc4ccc(-c5csnn5)cc4)CC3)C(=O)[C@@H]3CC=CC[C@H]23)cc1OC.Cl.Cl` [compound 28, (4aS,8aR)-4-(3,4-Dimethoxyphenyl)-2-[1-(4-1,2,3-thiadiazol-4-yl-benzyl)-piperidin-4-yl]-4a,5,8,8a-tetrahydro-2H-phthalazin-1-one dihydrochloride], for which the “Inhibition of PDE4 acitivity [measured as -logIC50 (mol/l)]” value amounted to 10.24.
Take `CCN1CCN(C(=O)N2CCC(N3N=C(c4ccc(OC)c(OC)c4)[C@H]4CC=CC[C@H]4C3=O)CC2)C(=O)C1=O` [compound 29, 1-(1-{4-[(4aS,8aR)-4-(3,4-Dimethoxyphenyl)-1-oxo-4a,5,8,8a-tetrahydro-1H-phthalazin-2-yl]-piperidin-1-yl}-methanoyl)-4-ethyl-piperazine-2,3-dione]: the “Inhibition of PDE4 acitivity [measured as -logIC50 (mol/l)]” value came to 10.87.
For the compound `COc1ccc(C2=NN(C3CCN(CC(N)=O)CC3)C(=O)C3CC=CCC23)cc1OC` [compound 31, 2-{4-[(4aS,8aR)-4-(3,4-Dimethoxyphenyl)-1-oxo-4a,5,8,8a-tetrahydro-1H-phthalazin-2-yl]-piperidin-1-yl}-2H-acetamide hydrochloride], the “Inhibition of PDE4 acitivity [measured as -logIC50 (mol/l)]” value is listed as 9.20.

System in another data set: not given
Assay: not given
Settings: not given
As for `CCOc1ccc(C2=NN(C3CCN(C(=O)c4ccncc4)CC3)C(=O)[C@@H]3CC=CC[C@H]23)cc1OCC.Cl`, the melting point lay in the range of 66 to 68 °C.
Compound `CCOc1ccc(C2=NN(C3CCN(S(=O)(=O)c4ccc(C)cc4)CC3)C(=O)[C@@H]3CC=CC[C@H]23)cc1OCC` [compound 1, (4aS,8aR)-4-(3,4-Diethoxyphenyl)-2-[1-(toluene-4-sulfonyl)-piperidin-4-yl]-4a,5,8,8a-tetrahydro-2H-phthalazin-1-one] gave a melting point of 99 to 101 °C.
`CCOc1ccc(C2=NN(C3CCN(C(=O)CCCC(=O)O)CC3)C(=O)[C@@H]3CC=CC[C@H]23)cc1OCC` [compound 4, 5-{4-[(4aS,8aR)-4-(3,4-Diethoxy-phenyl)-1-oxo-4a,5,8,8a-tetrahydro-1H-phthalazin-2-yl]-piperidin-1-yl}-5-oxo-pentanoic acid] gave a melting point of 133 to 135 °C.
`CCOc1ccc(C2=NN(C3CCN(C(=O)NC(C)(C)C)CC3)C(=O)[C@@H]3CC=CC[C@H]23)cc1OCC` [compound 6, 4-[(4aS,8aR)-4-(3,4-Diethoxyphenyl)-1-oxo-4a,5,8,8a-tetrahydro-1H-phthalazin-2-yl]-piperidine-1-carboxylic acid tert-butylamide] came in with a melting point of 145 to 148 °C.
`COc1ccc(C2=NN(C3CCN(c4ccc([N+](=O)[O-])cc4)CC3)C(=O)[C@@H]3CC=CC[C@H]23)cc1OC` [compound 11, (4aS,8aR)-4-(3,4-Dimethoxyphenyl)-2-[1-(4-nitro-phenyl)-piperidin-4-yl]-4a,5,8,8a-tetrahydro-2H-phthalazin-1-one] showed a melting point of 196 to 197 °C.
